Test results from patent US20230173064A1, “DETOXIFIED LIPOPOLYSACCHARIDES (LPS), NATURALLY NON-TOXIC LPS, AND USES THEREOF” (priority 2020, published 2023).
Like-named read-outs stand apart in the source and are kept apart here.

Experiments:
[1] = tested on: human B-lymphoma tumor model (RL cells) in CB17-SCID mice; experiment: Tumor rejection assay, therapeutic setting, human B-lymphoma RL cells engrafted in CB17-SCID mice; format: in vivo, mouse; settings: for growth of established RL tumor cells: once a week for 3 weeks, LPS 0.5 mg/kg i.v., GLA 0.5 mg/kg, rituximab 30 mg/kg i.p., vs non-treated mice
Experimental: The therapeutic efficacy of native (LPS B2 0.0 and LPS W1 0.0) and modified (LPS B2 0.1 and LPS B2 1.1) LPS, alone or in combination with rituximab, was analyzed in vivo against a human B-lymphoma tumor model (RL cells) using tumor rejection assays with a therapeutic setting in mice.
Cohort of CB17-SCID mice were engrafted subcutaneously in the abdominal right flank with 5×10^6 human B-lymphoma cells (RL cells). When the tumor volume had reached 100 mm^3 (at day 20), mice were randomized (n=6 mice/group), and the first treatment was administered.
(§1) Mice were treated once a week for 3 weeks (at days 20, 27 and 34) with LPS B2 0.0, LPS B2 0.1, LPS B2 1.1 or LPS W1 0.0, used alone or in combination with rituximab (Genentech), an anti-human CD20 mAb.
(§2) Groups of mice treated with GLA (Merck/Immune Design Corp.) administered either intravenously or intraperitoneally at 0.5 mg/kg, alone or in combination with rituximab, were included for comparison.
(§3) LPS B2 0.0, LPS B2 0.1, LPS B2 1.1 or LPS W1 0.0 were administered intravenously at a dose of 0.5 mg/kg. Rituximab was administered intraperitoneally at a dose of 30 mg/kg.
Tumor-bearing mice injected with PBS (control) or rituximab alone were used as controls.
The tumor volume was measured twice a week (length x width) with a caliper. The tumor volume was determined using the formula: […]

human PBMC (CryoBlood) = settings: literature / vendor values; cited from earlier work
rabbits [2] = experiment: Rabbit Pyrogen Test (RPT), Ph. Eur. 5.1.10; format: in vivo; settings: intravenous, sum of temperature rises of 3 rabbits not above 1.15° C.
Experimental: Standardized Rabbit Pyrogen Test (RPT) were conducted according to European Pharmacopeia (Ph. Eur. 5.1.10). Product tested includes the naturally-occurring LPS B2 0.0 and LPS W1 0.0 and modified LPS B2 0.1, LPS B2 1.1 and LPS B2 1.2, as well as a non-GMP equivalent of the GLA from Merck (Avanti Polar Lipids).
Briefly, groups of three rabbits, weighing 2.5 to 3 kg received one intravenous injection of the tested product in 1 mL/kg of body weight.
For each candidate, several dose ranges were tested from 0.1 to 1000 ng/kg. For each animal, the baseline rectal temperature was recorded. After 30 minutes, the rabbits were inoculated in the ear vein. Temperatures were recorded every 6.5 minutes for 3 hours. The rising temperature of the rabbit body temperature is that the highest body temperature measure within the 3 hours, minus the normal body temperature.
Several doses of each candidates were tested to define their MNPD corresponding to the highest dose of a given product that can be administered in rabbits without inducing febrile reaction.
The pyrogenic activity of modified LPS B2 1.2 and LPS B2 1.3 was evaluated in vivo using the rabbit pyrogen test (RPT), as described in section 5.1.10 of the European Pharmacopeia. Both LPS were administered at the same dose of 450 ng/kg. Two experiments were performed for each modified LPS, with 3 rabbits/experiment (A1, A2 and A3).

CB17-SCID mice = experiment: Tolerance of intravenous injection in tumor-bearing CB17-SCID mice; format: in vivo, mouse; settings: 0.5 mg/kg intravenously
Experimental: as §1, §2, §3

[3] = Dynamic Light Scattering (DLS) aggregate size analysis in water and PBS suspensions; format: physicochemical; settings: for average particle size: 0.2 mg/mL, DLS at 25° C., average of triplicate
Experimental: Determination of aggregates sizes of LPS B2 0.0, LPS B2 0.1, LPS B2 1.1 and of synthetic GLA (PHAD®, from Avanti® Polar Lipids, Inc.) in aqueous and PBS suspensions was determined by Dynamic Light Scattering (DLS) using the Malvern Instruments Zetasizer Nano S90 with a scattering angle Θ=90°, incident laser wavelength λ=633 nm and temperature at 25° C.
Samples for measurements were prepared as follows: 200 μg of dry samples in 4 mL glass vials were suspended in 1 mL of water or PBS. LONZA LAL Reagent water and Gibco PBS pH 7.4 (without CaCl2 or MgCl2) were used. The solvents were added progressively (250 μL plus 250 μL plus 500 μL). Three homogenization cycles were applied after each addition of a solvent, consisting in a 10-second sonication in a Fisher Scientific FB 15050 ultrasonic bath and 5 seconds vigorous vortex agitation.
800 μL of each suspension were transferred to a disposable Eppendorf polystyrene semi-micro cuvette and DLS measurements were performed three times.
LPS SM1 V1 was diluted in PBS pH 7.5 at 50 nmol/mL, and filtered through a 200-nm filter to remove large debris and aggregates. No nucleic acid contaminants and 2-4 μg/mL of protein contaminants were measured in the sample.

rabbits [4] = settings: literature values; cited from earlier work
[5] = tested on: Osa tumor cells in Sprague-Dawley (SD) rats; experiment: Tumor rejection assay, orthotopic rat model of osteosarcoma (Osa); format: in vivo
Experimental: The therapeutic efficacy of the modified LPS B2 1.3 was analyzed in vivo against an orthotopic rat model of osteosarcoma (Osa) using tumor rejection assays with a therapeutic setting.
Sprague-Dawley (SD) rats were engrafted with Osa tumor cells in a paratibial position (left posterior tibia) after a periosteal abrasion. When tumors reached an average tumor volume of 150 mm^3, rats (n=3 to 8/group) were randomized into LPS B2 1.3, Doxorubicin (Doxo), or PBS (Control) groups.
LPS B2 1.3 was administered intravenously into the tail vein, twice a week for 2 weeks at 0.25 mg/kg.
Doxorubicin was administered intraperitoneally twice a week for 2 weeks at 1 mg/kg.
Tumor growth and survival were monitored twice a week. Tumor volumes V were assessed according to the following formula: […]
with L the longest and C the shortest tumor diameter.

Molecule: CCCCCCCCCCCCCC(=O)O[C@H](CCCCCCCCCCC)CC(=O)O[C@@H]1[C@@H](NC(=O)C[C@H](CCCCCCCCCCC)OC(=O)CCCCCCCCCCCCC)[C@H](OC[C@H]2O[C@H](O)[C@H](NC(=O)C[C@H](O)CCCCCCCCCCC)[C@@H](OC(=O)C[C@H](O)CCCCCCCCCCC)[C@@H]2O)O[C@H](CO)[C@H]1OP(=O)(O)O [GLA, glucopyranosyl lipid A]
- complete tumor regression ([1]; GLA 0.5 mg/kg injected intraperitoneally in combination with rituximab): 50%
- growth of established RL tumor cells ([1]; single agent): did not show any impairment
- MAT (pyrogenicity as described in the literature) (human PBMC (CryoBlood)): 15700^2 EEU/μg
- MNPD (maximum non-pyrogenic dose) (rabbits [2]): 0.034 µg/kg
- altered aspect and behavior (toxicity) after intravenous administration (CB17-SCID mice): had to be euthanized
- average particle size ([3]; in PBS): about 529 nm
- DLS profile ([3]; in water): monodisperse
- size of nano-particles / aggregates ([3]; in water or PBS): > 500 nm
- solubility / dispersibility ([3]; in water or PBS, without dispersing reagents or special treatment): precipitates
- appearance of the final 0.2 mg/mL suspensions ([3]; in water or in PBS): slightly opaque but homogeneous
- average particle size ([3]; in water): about 544 nm

Molecule: CCCCCCCCCCC[C@H](CC(=O)N[C@H]1[C@H](OC[C@H](NC(=O)C[C@@H](CCCCCCCCCCC)OCCCCCCCCCC)C(=O)O)O[C@H](CO)[C@@H](OP(=O)(O)O)[C@@H]1OC(=O)C[C@@H](CCCCCCCCCCC)OCCCCCCCCCC)OCCCCCCCCCC [GSK1795-091]
- MNPD (maximum non-pyrogenic dose) (rabbits [4]): 0.0025 µg/kg

Molecule: COc1cccc2c1C(=O)c1c(O)c3c(c(O)c1C2=O)C[C@@](O)(C(=O)CO)C[C@@H]3O[C@H]1C[C@H](N)[C@H](O)[C@H](C)O1 [doxorubicin]
- growth of established Osa tumor cells ([5]; LPS B2 1.3 0.25 mg/kg i.v., doxorubicin 1 mg/kg i.p., twice a week for 2 weeks, vs PBS (and doxorubicin)): No significant difference in tumor growth
- animals alive (survival) ([5]; day 31): 40%
- complete tumor regressions (complete responses) ([5]; day 31): no tumor regressions

Molecule: rituximab: an anti-CD20 monoclonal antibody (Genentech)
- complete tumor regression ([1]; single agent, D54 post-tumor challenge): 17%
- growth of established RL tumor cells ([1]; single agent): significantly impair the growth
